From ChEMBL document CHEMBL1201862, “PubChem BioAssay data set” (2004) come the findings set out here.

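96-well plates; 48 h exposure; 5 concentrations. Endpoints by linear interpolation between flanking doses. Not reached: highest tested concentration assigned. GI50: concentration for 50% inhibition of growth.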 Calls of active or inactive are those of the source. No stated cut-off is given here; in the data, active = GI50 up to about 1.1 µM and inactive = higher.

Test systems include A549; RPMI-8226; EKVX; SF-295; MDA-N; PC-3; SNB-19; NCI-H522; UACC-62; SF-539; HOP-62; 786-0; M14; MDA-MB-231; UACC-257; K562; KM12; DU-145; MOLT-4; Hs-578T.
Common to all, as to test: NCI anticancer screen, dose series, 48 h

For `CC1=C(C(=O)OCCc2ccc([N+](=O)[O-])cc2)C(c2ccccc2[N+](=O)[O-])C(C(=O)OC(C)C)=C(C)N1` (stereo not given), the GI50 was 2.96 µM (inactive) with A549; 2.93 µM (inactive) in the experiment with RPMI-8226; 2.36 µM (inactive) in the experiment with EKVX; 2.74 µM (inactive) in the experiment on SF-295; 4.51 µM (inactive) with MDA-N; 1.49 µM (inactive) in the experiment on PC-3. In addition, the GI50 was 5.61 µM (inactive) in the experiment with SNB-19; 2.18 µM (inactive) with NCI-H522; 4.29 µM (inactive) in the experiment with UACC-62; 4.15 µM (inactive) in the experiment with SF-539; 8.67 µM (inactive) with HOP-62; 3.08 µM (inactive) in the experiment on 786-0. Besides, the GI50 in the experiment with M14 is 4.05 µM (inactive); with MDA-MB-231, 4.91 µM (inactive); in the experiment with UACC-257, 4.04 µM (inactive); in the experiment with K562, 3.39 µM (inactive); in the experiment on KM12, 3.48 µM (inactive); in the experiment with DU-145 it was 9.04 µM (inactive). For the same molecule, the GI50 in the experiment with MOLT-4 is 1.99 µM (inactive); in the experiment on Hs-578T it was 4.38 µM (inactive).
On to `O=C1CC(c2ccc([N+](=O)[O-])cc2)C2(C(=O)NC(=S)NC2=O)C(c2ccc([N+](=O)[O-])cc2)C1` (stereo not given), for which the GI50 in the experiment with A549 was 19.6 µM (inactive); with RPMI-8226 it was 42.9 µM (inactive); with EKVX, 32.7 µM (inactive); in the experiment on SF-295, 25.5 µM (inactive); with MDA-N it was 31.4 µM (inactive); in the experiment on PC-3 it was 30.5 µM (inactive). Further, the GI50 in the experiment with SNB-19 is 17.5 µM (inactive); in the experiment with NCI-H522, 18.9 µM (inactive); with UACC-62 it was 14.8 µM (inactive); in the experiment with SF-539, 33.7 µM (inactive); in the experiment with HOP-62 it was 23.8 µM (inactive); in the experiment on 786-0, 27.7 µM (inactive). For the same molecule, the GI50 is 19 µM (inactive) with M14; 13.6 µM (inactive) in the experiment on MDA-MB-231; 18.1 µM (inactive) with UACC-257; 62.5 µM (inactive) in the experiment with K562; 18.5 µM (inactive) in the experiment on KM12; 31.8 µM (inactive) with DU-145. The values for the GI50 with MOLT-4 and in the experiment with Hs-578T were 73.3 µM (inactive) and 25.8 µM (inactive), respectively.
On to `CC(C)Oc1cccc(N2C(CCc3c[nH]c4ccc(Br)cc34)=NS(=O)(=O)c3cnccc32)c1`, for which the GI50 in the experiment with A549 was 29.2 µM (inactive); in the experiment with RPMI-8226, 24 µM (inactive); with EKVX, 29.2 µM (inactive); with SF-295, 25.7 µM (inactive); with MDA-N, 37.3 µM (inactive); with PC-3, 24.7 µM (inactive). Moreover, the GI50 is 49.5 µM (inactive) in the experiment on SNB-19; 27.9 µM (inactive) with NCI-H522; 33.3 µM (inactive) in the experiment on UACC-62; 75.7 µM (inactive) with SF-539; 94 µM (inactive) in the experiment with HOP-62; 45 µM (inactive) with 786-0. Besides, the GI50 with M14 is 32.5 µM (inactive); in the experiment on MDA-MB-231, > 100 µM (inactive); with UACC-257, 50.8 µM (inactive); with K562 it was 27 µM (inactive); in the experiment with KM12, 49.7 µM (inactive); in the experiment on DU-145, 94.4 µM (inactive). Further, the GI50 is 14.8 µM (inactive) with MOLT-4 and 64.6 µM (inactive) in the experiment with Hs-578T.
Turning to `Cc1cccc(C)c1NC(=O)C(C#N)C1=C(Cl)C(=O)c2ccccc2C1=O` (stereo not given), the GI50 with A549 was 19.7 µM (inactive); with RPMI-8226, 8.67 µM (inactive); with EKVX, 21.4 µM (inactive); with SF-295, 16.3 µM (inactive); in the experiment on MDA-N, 14.4 µM (inactive); with PC-3, 13.8 µM (inactive). Also, the GI50 was 16 µM (inactive) in the experiment on SNB-19; 10.5 µM (inactive) with NCI-H522; 16.1 µM (inactive) in the experiment on UACC-62; 21.4 µM (inactive) in the experiment with SF-539; 18 µM (inactive) in the experiment on HOP-62; 22 µM (inactive) with 786-0. The GI50 in the experiment with M14 is 10.1 µM (inactive); with MDA-MB-231, 18.6 µM (inactive); in the experiment on UACC-257, 13.9 µM (inactive); in the experiment on K562, 2.77 µM (inactive); with KM12 it was 16.8 µM (inactive); in the experiment with DU-145, 14.5 µM (inactive). For the same molecule, the GI50 was 1.93 µM (inactive) in the experiment with MOLT-4 and 12.1 µM (inactive) in the experiment on Hs-578T.
On to `Nc1ccccc1SC(C[N+](=O)[O-])c1ccc2c(c1)OCO2` (stereo not given), for which the GI50 in the experiment on A549 was 3.1 µM (inactive); in the experiment with RPMI-8226, 1.22 µM (inactive); in the experiment on EKVX, 3.89 µM (inactive); with SF-295 it was 4.89 µM (inactive); in the experiment on MDA-N it was 1.75 µM (inactive); in the experiment on PC-3, 7.66 µM (inactive). In addition, the GI50 in the experiment with SNB-19 is 12 µM (inactive); with NCI-H522, 14.1 µM (inactive); in the experiment with UACC-62 it was 13.2 µM (inactive); in the experiment with SF-539, 2.24 µM (inactive); with HOP-62 it was 2.12 µM (inactive); in the experiment on 786-0, 1.66 µM (inactive). The GI50 in the experiment with M14 was 1.62 µM (inactive); in the experiment on MDA-MB-231, 7.1 µM (inactive); in the experiment with UACC-257, 1.81 µM (inactive); in the experiment with K562, 1.63 µM (inactive); with KM12 it was 2.44 µM (inactive); with DU-145 it was 2.62 µM (inactive). In addition, the GI50 with MOLT-4 was 2.3 µM (inactive); with Hs-578T, 5.64 µM (inactive).
With `CCOC(=O)C1=C(C)NC(C)=C(C(=O)OCCNC(=O)c2ccc(N=[N+]=[N-])cc2)C1c1ccccc1C(F)(F)F` (stereo not given) [AZIDOPINE], the GI50 in the experiment with A549 was 8 µM (inactive); with RPMI-8226, 4.37 µM (inactive); in the experiment on EKVX it was 10.7 µM (inactive); in the experiment with SF-295, 8.61 µM (inactive); in the experiment with MDA-N it was 10.2 µM (inactive); in the experiment on PC-3, 3.28 µM (inactive). Also, the GI50 is 15.4 µM (inactive) in the experiment with SNB-19; 8.39 µM (inactive) with NCI-H522; 11.2 µM (inactive) with UACC-62; 19.1 µM (inactive) with SF-539; > 21.5 µM (inactive) in the experiment on HOP-62; 13.3 µM (inactive) in the experiment with 786-0. The GI50 in the experiment with M14 is 9.98 µM (inactive); in the experiment on MDA-MB-231 it was 14 µM (inactive); in the experiment on UACC-257, 11.5 µM (inactive); in the experiment on K562, 7.83 µM (inactive); with KM12 it was 7.85 µM (inactive); in the experiment on DU-145, 10.5 µM (inactive). The GI50 in the experiment with MOLT-4 was 4.09 µM (inactive); in the experiment on Hs-578T, 12.7 µM (inactive).
For `O=c1c(=O)c2cscc2c1=O`, the GI50 is 8.99 µM (inactive) in the experiment with A549; 6.47 µM (inactive) in the experiment with RPMI-8226; 5.11 µM (inactive) in the experiment with EKVX; > 25 µM (inactive) with SF-295; 4.99 µM (inactive) with MDA-N; 4.58 µM (inactive) in the experiment with PC-3. The GI50 with SNB-19 is 6.56 µM (inactive); in the experiment on NCI-H522, 0.486 µM (active); in the experiment on UACC-62, 4.73 µM (inactive); with SF-539, 4.95 µM (inactive); with HOP-62, 5.15 µM (inactive); in the experiment with 786-0, 5.22 µM (inactive). The GI50 with M14 was 4.94 µM (inactive); in the experiment with MDA-MB-231, 5.14 µM (inactive); in the experiment on UACC-257 it was 4.27 µM (inactive); with K562 it was 0.0955 µM (active); with KM12, 5.15 µM (inactive); in the experiment with DU-145, 5.33 µM (inactive). Moreover, the GI50 with MOLT-4 was 4.58 µM (inactive); with Hs-578T it was 9.75 µM (inactive).
Regarding `COc1c(O)cc2c(c1O)C(=O)C(Cc1ccc(O)cc1)CO2` (stereo not given), the GI50 in the experiment on A549 was > 100 µM (inactive); in the experiment on RPMI-8226, 25.7 µM (inactive); in the experiment on EKVX, > 100 µM (inactive); in the experiment on SF-295 it was 65.8 µM (inactive); in the experiment on MDA-N, 32.1 µM (inactive); in the experiment with PC-3, 41.7 µM (inactive). Further, the GI50 in the experiment with SNB-19 is > 100 µM (inactive); in the experiment with NCI-H522 it was 80.7 µM (inactive); with UACC-62 it was 99.8 µM (inactive); in the experiment on SF-539, 56.4 µM (inactive); in the experiment with HOP-62 it was 94.6 µM (inactive); in the experiment on 786-0, > 100 µM (inactive). The GI50 in the experiment on M14 is > 100 µM (inactive); in the experiment with MDA-MB-231, > 100 µM (inactive); in the experiment with UACC-257 it was > 100 µM (inactive); with K562, 22.8 µM (inactive); in the experiment on KM12, 89.3 µM (inactive); with DU-145 it was > 100 µM (inactive). For the same molecule, the GI50 in the experiment on MOLT-4 is 44.5 µM (inactive); with Hs-578T it was > 100 µM (inactive).
In the case of `CC#CC(O)(C(=O)OC1CCCN(C)C1)C1=CC=CCC1` (stereo not given), the GI50 in the experiment on A549, in the experiment on RPMI-8226, with EKVX, in the experiment on SF-295, in the experiment on MDA-N and in the experiment with PC-3 was > 100 µM (inactive) in each case. Further, the GI50 in the experiment with SNB-19, in the experiment on NCI-H522, in the experiment with UACC-62, with SF-539, in the experiment on HOP-62 and in the experiment with 786-0 was > 100 µM (inactive) in each case. Besides, the GI50 in the experiment with M14, in the experiment on MDA-MB-231, with UACC-257, in the experiment with K562, in the experiment with KM12 and in the experiment on DU-145 was > 100 µM (inactive) in each case. The GI50 with MOLT-4 and with Hs-578T was > 100 µM (inactive) in each case.
Turning to `CC(=O)O[C@H]1CC[C@@]2(C)C(=CC[C@H]3[C@@H]4C[C@H](N5CCOCC5)[C@H](OC(C)=O)[C@@]4(C)CC[C@@H]32)C1`, the GI50 was > 100 µM (inactive) with A549; 92.5 µM (inactive) with RPMI-8226; > 100 µM (inactive) in the experiment on EKVX; > 100 µM (inactive) in the experiment on SF-295; > 100 µM (inactive) with MDA-N; > 100 µM (inactive) with PC-3. For the same molecule, the GI50 in the experiment with SNB-19 was > 100 µM (inactive); in the experiment on NCI-H522, > 100 µM (inactive); in the experiment on UACC-62 it was > 100 µM (inactive); with SF-539, 78 µM (inactive); in the experiment on HOP-62, > 100 µM (inactive); with 786-0 it was > 100 µM (inactive). Moreover, the GI50 with M14 is > 100 µM (inactive); in the experiment on MDA-MB-231, > 100 µM (inactive); in the experiment with UACC-257, > 100 µM (inactive); in the experiment with K562, 25.4 µM (inactive); in the experiment with KM12 it was > 100 µM (inactive); with DU-145, > 100 µM (inactive). Also, the GI50 in the experiment on MOLT-4 and in the experiment on Hs-578T was > 100 µM (inactive) in each case.
